For eight molecules, GI50 and TGI results are on record in PubChem BioAssay (NCI).

Common to all, as to assay: NCI-60 cell line screen, 48 h
Assay [1] concerns MCF7 breast.
In assay [2] the test system is MDA-MB-231 breast.
Assay [3] deals with MALME-3M melanoma.
Assay [4] relates to PC-3 prostate.
The test system of assay [5] is CAKI-1 renal.
Assay [6] relates to SK-OV-3 ovarian.
For assay [7], the system named is SF-295 CNS.
Assay [8] deals with RPMI-8226 leukemia.
Assay [9] has as its system NCI-H23 lung.
In assay [10] the test system is EKVX NSCLC.

The structures appear in SMILES notation.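 The compound was tested at five concentrations on cells cultured in 96-well plates, with a 48-hour exposure period. At the GI50, growth is halved. TGI denotes the concentration required for complete inhibition of growth.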 Bounds are passed on as bounds.

For the molecule `Nc1ncnc2c1ncn2Cc1ccc(C23CC4CC(CC(C4)C2)C3)c(OCc2cc(F)c(F)cc2F)c1`, the GI50 in assay [1] is 6.37 µM; in [2], 6.39 µM; in assay [3] it was 4.59 µM; in assay [4], 2.17 µM; in assay [5], 2.32 µM; in assay [6], 87.7 µM. In addition, in assay [7], the GI50 is 6.29 µM. In addition, the TGI in assay [1] was 30.2 µM; in assay [2] it was over 100 µM; in assay [3], over 100 µM; in assay [4], 10.9 µM; in assay [5], 6.9 µM; in assay [6] it was over 100 µM. Besides, the TGI in assay [7] was over 100 µM.

For `Cc1cc(NCCCNc2ccnc3cc(Cl)ccc23)nc(N2CCN(C)CC2)n1`, the GI50 in assay [1] was 2.77 µM; in [2] it was 2.07 µM; in assay [8], 2.56 µM; in assay [9], 5.9 µM; in [3], 2.12 µM; in [5] it was 3.12 µM. Also, the GI50 was 7.66 µM in [6] and 3.51 µM in assay [7]. Further, the TGI amounted to 28.4 µM in assay [1]; 15.8 µM in [2]; 7.45 µM in assay [8]; 28.6 µM in assay [9]; 4.47 µM in assay [3]; 11.2 µM in assay [5]. The TGI in assay [6] is 45.6 µM; in assay [7], 12.3 µM.

For the molecule `CC/C(=C(/c1ccc(OCCN(C)C)cc1)c1ccc(OC(=O)CCC(=O)c2c(C)[nH]c(/C=C3\N=C(c4ccc[nH]4)C=C3OC)c2C)cc1)c1ccccc1`, the GI50 in assay [1] is under 0.0217 µM; in assay [2] it was 0.441 µM; in assay [8] it was 1.57 µM; in assay [9] it was 4.02 µM; in assay [3], 2.68 µM; in [4], 1.78 µM. The GI50 was 2.66 µM in assay [5], 6.99 µM in assay [6] and 2.61 µM in assay [7]. For the same molecule, the TGI in assay [1] amounted to 2.66 µM; in assay [2], 2.38 µM; in assay [8], 5.58 µM; in [9], 18.7 µM; in [3], 6.35 µM; in assay [4], 17.1 µM. Moreover, the figures for the TGI in assay [5], in [6] and in assay [7] were 16 µM, 29.6 µM and 9.06 µM, respectively.

For `O=C1C2C(C(=O)[N]1[Hg][c]1cccs1)C1(Cl)C(Cl)=C(Cl)C2(Cl)C1(Cl)Cl` (centres undefined), the GI50 in assay [1] was 0.386 µM; in assay [8] it was 1.41 µM; in assay [9], 1.62 µM; in assay [10] it was 1.83 µM; in assay [3], 1.22 µM; in assay [4], 1.72 µM. The GI50 in assay [5] is 1.29 µM; in [6], 5.71 µM; in [7], 3.11 µM. Further, the TGI in [1] is 1.94 µM; in [8], 6.38 µM; in [9], 3.14 µM; in assay [10], 4.2 µM; in [3] it was 2.79 µM; in assay [4] it was 4.18 µM. In addition, the TGI was 2.64 µM in assay [5], 17.9 µM in [6] and 8.53 µM in [7].

`O=S(=O)(Cc1ccc(Cl)cc1Cl)c1ccc(Cl)cc1`: the GI50 is 0.341 µM in assay [1]; 2.38 µM in [2]; 1.14 µM in [8]; 0.878 µM in [9]; 2.11 µM in assay [10]; 1.28 µM in assay [4]. Besides, the GI50 in [5] was 0.52 µM; in assay [6] it was 1.47 µM; in assay [7] it was 0.495 µM. For the same molecule, the TGI in assay [1] was over 100 µM; in [2], over 61.6 µM; in assay [8], over 69.7 µM; in [9], over 100 µM; in assay [10], over 100 µM; in [4], over 100 µM. Further, the values for the TGI in assay [5], in assay [6] and in assay [7] were over 100 µM, over 57.7 µM and 10.8 µM, respectively.

For the molecule `COc1cc(-c2nc3sccn3c2-c2ccnc(NCCNS(=O)(=O)c3ccc(Cl)cc3)n2)ccc1F`, the GI50 in assay [1] was 3.24 µM; in assay [9], 3.86 µM; in assay [10], 5.04 µM; in [3], 3.35 µM; in [4] it was 0.577 µM; in [5] it was 4.89 µM. Also, the GI50 in assay [6] is 6.82 µM; in assay [7], 4.07 µM. In addition, the TGI in [1], in [9], in [10], in assay [3], in assay [4] and in [5] was over 100 µM each time. For the same molecule, the TGI in assay [6] and in assay [7] was over 100 µM throughout.

In the case of `COc1cc2c3c(n(CCCN(CCN)CCCn4c5c(c6cc(OC)c(OC)cc6c4=O)C(=O)c4cc6c(cc4-5)OCO6)c(=O)c2cc1OC)-c1cc2c(cc1C3=O)OCO2`, the GI50 was 0.376 µM in [1]; 3.3 µM in assay [2]; 0.984 µM in assay [9]; 11.9 µM in [10]; 2.57 µM in assay [4]; 0.271 µM in [5]. Besides, the GI50 in assay [6] was 1.41 µM; in [7], 0.36 µM. Besides, the TGI was over 36 µM in assay [1]; 17.3 µM in assay [2]; 5.24 µM in assay [9]; over 62.6 µM in [10]; over 45.2 µM in assay [4]; 3.23 µM in assay [5]. The TGI was over 91.6 µM in [6] and 6.16 µM in assay [7].

For the molecule `CCOC(=O)c1sc2ncn(Cc3cccc(Br)c3)c(=O)c2c1C`, the GI50 in assay [1] is 31.4 µM; in [2] it was 12.5 µM; in [8] it was 27.6 µM; in assay [9], 66.7 µM; in assay [10], 25 µM; in [4], 25.5 µM. Besides, the GI50 in assay [5] is 24.6 µM; in assay [6] it was over 100 µM; in assay [7] it was 64.9 µM. Further, the TGI in assay [1] is over 100 µM; in assay [2], 74.8 µM; in [8] it was over 100 µM; in assay [9], over 100 µM; in assay [10], over 100 µM; in [4], over 100 µM. Also, the figures for the TGI in assay [5], in assay [6] and in assay [7] were 97.5 µM, over 100 µM and over 100 µM, respectively.
